Experimental data as given in PMC8859269, “Lichenysin Production by Bacillus licheniformis Food Isolates and Toxicity to Human Cells” (Frontiers in Microbiology, 2022).
Converted amounts (≈) assume the structure as drawn. “Also recorded” adds a separate entry of the source. Where two headings read alike, the source gives them in different places. Numbered stars: 1 amine (or outer) side, 2 acyl side, 3 side chain; on linkers, the order of the positions; unused ones are H or OH. Bridge positions count the residues as written; N and C are the ends. Square brackets hold non-standard residues; d marks the D form. Peptide text beside a SMILES is read from it. X2 = CC(C)CCCCCCCCC[C@H](CC(=O)[*:1])O[*:2]

Columns and labels:
[1] = alamarBlue cytotoxicity assay, HEK293 cells; type: cell-based, human; settings: human; HEK293, 72 h exposure, alamarBlue; read-out: IC50 (cytotoxic level)
Experimental: (§1) To perform cytotoxicity assay, two batches of concentrated lichenysin were prepared from biomass grown on LB agar plates as described in section “Extraction of Lichenysin From Biomass Collected From Surface Growth on LB Agar and Skimmed Milk Agar.” Instead of using 150 mg biomass, lichenysin was extracted from 6.5 g of biomass from strain B4123, and dissolved in a final volume of 300 μl methanol. A small aliquot of 1 μl was taken to determine the concentration of the concentrated lichenysin extract via Reversed-Phase High-Performance Liquid Chromatography – Electro Spray Ionization Mass Spectrometry (RP-HPLC-ESI-MS). […]
(§2) The alamarBlue (Thermo Fischer Scientific) fluorometric assay was used to examine the cytotoxicity of lichenysin and surfactin toward two human cell lineages (HEK293, Caco-2) and ileum organoids from pigs. Culturing medium DMEM with Alamar blue (i.e., a no-cells control) and cells exposed to 10% DMSO were used to correct for background fluorescence and cell death, respectively. […]
(§3) The alamarBlue assay was performed as described in [Burczynski et al. (2000)], [Hamid et al. (2004)], and [Rampersad (2012)]. […] The fluorescence at the emission wavelength of 590 nm was measured with a SpectraMax M5 (Molecular Devices, San Jose, CA, United States) and expressed as relative fluorescence units. […]
(§4) The cell viability (%) was calculated by using the formula: […]

[2] = tested on: Human Embryonic Kidney (HEK293) cells; test: alamarBlue cytotoxicity assay, HEK293 cells; type: cell-based; settings: HEK293, 200 μM (∼200 μg/ml), exposure for 72 h
Experimental: as §1, §2, §3, §4

[3] = alamarBlue cytotoxicity assay, Caco-2 cells; type: cell-based, human; settings: human, Caco-2, 72 h exposure, alamarBlue; read-out: IC50 (cytotoxic level)
Experimental: (§5) To perform cytotoxicity assay, two batches of concentrated lichenysin were prepared from biomass grown on LB agar plates as described in section “Extraction of Lichenysin From Biomass Collected From Surface Growth on LB Agar and Skimmed Milk Agar.” Instead of using 150 mg biomass, lichenysin was extracted from 6.5 g of biomass from strain B4123, and dissolved in a final volume of 300 μl methanol. A small aliquot of 1 μl was taken to determine the concentration of the concentrated lichenysin extract via Reversed-Phase High-Performance Liquid Chromatography – Electro Spray Ionization Mass Spectrometry (RP-HPLC-ESI-MS). The remaining concentrated extract was entirely evaporated under a flow of nitrogen at 40°C in a heating block. The dry residue was resuspended in either 99% Dimethyl Sulfoxide (DMSO) or Dulbecco’s Modified Eagle Medium (DMEM; Gibco, Thermo Fischer Scientific, Bleiswijk, Netherlands) without phenol red serum or antibiotics. Surfactin (purchased from Merck) was also used in cytotoxicity assays by dissolving 10 mg in 1 ml of distilled water (10 mM) (with an adjusted pH of ∼11.7 to obtain full solubility). Both lichenysin and surfactin were diluted to the desired concentration in DMEM medium without phenol red, serum and antibiotics before adding to the cells.
(§6) Human Embryonic Kidney (HEK293) cells were obtained from Invivogen (San Diego, CA, United States), and Caco-2 human intestinal epithelial cells (ATCC HTB-37) were purchased from the American Type Culture Collection (Manassas, VA, United States). Both cell lines were maintained in DMEM medium containing 10 % Fetal Bovine Serum (FBS) (Thermo Fischer Scientific) and 1 % penicillin/streptomycin (Merck) to attain a confluent growth. The grown HEK293 and Caco-2 cells were seeded and suspended at a final concentration of 2 × 10^5 cells/ml (in 200 μl) in 96 wells-plates (Greiner). […]
as §2
(§7) The alamarBlue assay was performed as described in [Burczynski et al. (2000)], [Hamid et al. (2004)], and [Rampersad (2012)]. […] The fluorescence at the emission wavelength of 590 nm was measured with a SpectraMax M5 (Molecular Devices, San Jose, CA, United States) and expressed as relative fluorescence units. The average fluorescence of the no-cells control was used to normalize all recorded fluorescence emission values.
as §4

[4] = tested on: Caco-2 human intestinal epithelial cells; test: alamarBlue cytotoxicity assay, Caco-2 cells; type: cell-based; settings: Homo sapiens, Caco-2, 72 h
Experimental: as §5, §6, §2, §7, §4

[5] = alamarBlue cytotoxicity assay, pig ileum organoids; type: cell-based; settings: 72 h exposure, alamarBlue, read-out: IC50 (cytotoxic level)
Experimental: as §1, §2, §3, §4

[6] = tested on: pig ileum organoids; test: alamarBlue cytotoxicity assay, pig ileum organoids; type: cell-based; settings: 200 μM, 72 h
Experimental: as §1, §2, §3, §4

For `CC(C)CCCCCCCCC[C@@H]1CC(=O)N[C@@H](CCC(=O)O)C(=O)N[C@@H](CC(C)C)C(=O)N[C@H](CC(C)C)C(=O)N[C@@H](C(C)C)C(=O)N[C@@H](CC(=O)O)C(=O)N[C@H](CC(C)C)C(=O)N[C@@H](CC(C)C)C(=O)O1` [Surfactin, cyclo-[Glu^1-Leu^2-Leu^3-Val^4-Asp^5-Leu^6-Leu^7 − − β-OH fatty acid]] (EL[dL]VD[dL]L; linker N-C via X2), the IC50 [1] was > 200 mg/L, the “toxicity at the highest tested concentration” value [2] was “not toxic” and the IC50 [3] was 23.5 mg/L (≈ 22.7 µM). For the same molecule, the IC50 ([4]; Caco-2, 72 h incubation, read-out: concentration needed to reduce cell viability by 50% (IC50)) was 23.4 mg/L, the IC50 ([4]; in log10 scale, read-out: IC50 in log10 scale (converted)) was 1.37 µM and the IC50 ([4]; read-out: IC50) was 23.5 µM. For the same molecule, the IC50 [5] was > 200 mg/L and the “toxicity at the highest tested concentration” value [6] was “did not show toxicity; also recorded: no toxicity was seen”.
